The values below come from PubChem BioAssay AID248 (DTP/NCI, 2004).

Where “and” joins values, the source holds several entries; their conditions need not be identical. Equal values may be shown once. Toxic doses and inconclusive results are not listed.

In this test the test system is L1210 leukemia ip in BDF1 mice, survival T/C. Nature of the test: NCI In Vivo Anticancer Drug Screen. Data for tumor model L1210 Leukemia (intraperitoneal) in B6D2F1 (BDF1) mice. Conditions: endpoint: mean survival time, higher = longer survival. The procedure, abridged:
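Transplantable tumor model; survival measured in treated vs vehicle control mice. Value = treated/control.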

[1] abbreviates: dose: 100.0 mg/kg/injection, schedule: Q01DX009 (ip), vehicle: saline.
Where [2] appears, read: dose: 100.0 mg/kg/injection, schedule: Q04DX003 (ip), vehicle: saline.
Setting [3] is: dose: 200.0 mg/kg/injection, schedule: Q04DX003 (ip), vehicle: saline.
Where [4] appears, read: dose: 400.0 mg/kg/injection, schedule: Q04DX003 (ip), vehicle: saline.
Setting [5] is: dose: 100.0 mg/kg/injection, schedule: Q01DX009 (ip), vehicle: saline with Tween-80.
The mark [6] stands for this setting: dose: 200.0 mg/kg/injection, schedule: Q01DX009 (ip), vehicle: saline with Tween-80.
Where [7] appears, read: dose: 400.0 mg/kg/injection, schedule: Q01DX009 (ip), vehicle: saline with Tween-80.
Where [8] appears, read: dose: 100.0 mg/kg/injection, schedule: Q04DX003 (ip), vehicle: Klucel (hydroxypropylcellulose) (HPC).
[9] abbreviates: dose: 200.0 mg/kg/injection, schedule: Q04DX003 (ip), vehicle: Klucel (hydroxypropylcellulose) (HPC).
[10] abbreviates: dose: 400.0 mg/kg/injection, schedule: Q04DX003 (ip), vehicle: Klucel (hydroxypropylcellulose) (HPC).
[11] abbreviates: dose: 100.0 mg/kg/injection, schedule: Q01DX009 (ip), vehicle: Klucel (hydroxypropylcellulose) (HPC).
[12] abbreviates: dose: 200.0 mg/kg/injection, schedule: Q01DX009 (ip), vehicle: Klucel (hydroxypropylcellulose) (HPC).
The mark [13] stands for this setting: dose: 100.0 mg/kg/injection, schedule: Q01DX001 (ip), vehicle: saline.
Where [14] appears, read: dose: 200.0 mg/kg/injection, schedule: Q01DX001 (ip), vehicle: saline.
The mark [15] stands for this setting: dose: 400.0 mg/kg/injection, schedule: Q01DX001 (ip), vehicle: saline.
Where [16] appears, read: dose: 50.0 mg/kg/injection, schedule: Q01DX009 (ip), vehicle: saline with Tween-80.
[17] abbreviates: dose: 50.0 mg/kg/injection, schedule: Q01DX009 (ip), vehicle: saline.
The mark [18] stands for this setting: dose: 12.5 mg/kg/injection, schedule: Q01DX009 (ip), vehicle: saline with Tween-80.
Setting [19] is: dose: 25.0 mg/kg/injection, schedule: Q01DX009 (ip), vehicle: saline with Tween-80.

As for `ClCc1ccncc1`, the T/C by setting is: under setting [1], 87 % of control; under setting [2], 109 % of control; (dose: 200.0 mg/kg/injection, schedule: Q01DX009 (ip), vehicle: saline) 95 % of control; under setting [3], 98 % of control; under setting [4], 98 % of control.

As to `O=C(Nc1ccccc1C(F)(F)F)c1ccc(C(=O)Nc2ccccc2C(F)(F)F)cc1`, the T/C is 90 % of control under setting [5]; 90 % of control (dose: 100.0 mg/kg/injection, schedule: Q04DX003 (ip), vehicle: saline with Tween-80); 87 % of control under setting [6]; 90 % of control (dose: 200.0 mg/kg/injection, schedule: Q04DX003 (ip), vehicle: saline with Tween-80); 100 % of control under setting [7]; 91 % of control (dose: 400.0 mg/kg/injection, schedule: Q04DX003 (ip), vehicle: saline with Tween-80).

Consider `CSCC(C(N)=O)c1cc(Cl)ccc1Cl` (configuration not stated), for which the T/C (dose: 100.0 mg/kg/injection, schedule: Q01DX001 (ip), vehicle: Klucel (hydroxypropylcellulose) (HPC)) is 107 % of control; the T/C (dose: 100.0 mg/kg/injection, schedule: Q01DX009 (ip), vehicle: water) was 100 % of control; the T/C under setting [8] is 102 % of control; the T/C (dose: 100.0 mg/kg/injection, schedule: Q04DX003 (ip), vehicle: water) is 100 % of control; the T/C (dose: 200.0 mg/kg/injection, schedule: Q01DX001 (ip), vehicle: Klucel (hydroxypropylcellulose) (HPC)) is 103 % of control; the T/C (dose: 200.0 mg/kg/injection, schedule: Q01DX009 (ip), vehicle: water) was 94 % of control. The T/C under setting [9] was 104 % of control; the T/C (dose: 200.0 mg/kg/injection, schedule: Q04DX003 (ip), vehicle: water) was 100 % of control; the T/C (dose: 400.0 mg/kg/injection, schedule: Q01DX001 (ip), vehicle: Klucel (hydroxypropylcellulose) (HPC)) is 102 % of control; the T/C (dose: 400.0 mg/kg/injection, schedule: Q01DX009 (ip), vehicle: water) is 94 % of control; the T/C under setting [10] was 96 % of control; the T/C (dose: 400.0 mg/kg/injection, schedule: Q04DX003 (ip), vehicle: water) was 90 % of control.

In the case of `CC1(C)N=C(N)N=C(N)N1c1ccc(OCCCNC(=O)Nc2ccc(S(=O)(=O)F)cc2)c(Cl)c1`, the T/C runs as follows: (dose: 18.75 mg/kg/injection, schedule: Q04DX003 (ip), vehicle: saline with Tween-80) 106 % of control; (dose: 37.5 mg/kg/injection, schedule: Q04DX003 (ip), vehicle: saline with Tween-80) 104 % of control; (dose: 50.0 mg/kg/injection, schedule: Q01DX004 (ip), vehicle: saline) 111 % of control; (dose: 75.0 mg/kg/injection, schedule: Q04DX003 (ip), vehicle: saline with Tween-80) 103 % of control; (dose: 100.0 mg/kg/injection, schedule: Q01DX004 (ip), vehicle: saline) 100 % of control.

As to `O=S(O)c1cc(Br)ccc1Br`, the T/C is, setting by setting: under setting [11], 97 % of control; under setting [8], 93 % of control; under setting [12], 113 % of control; under setting [9], 104 % of control; under setting [10], 94 % of control.

Turning to `CCCC(=O)C(CC)C(OC(C)=O)(C(F)(F)F)C(F)(F)F` (configuration not stated), the T/C (dose: 75.0 mg/kg/injection, schedule: Q01DX009 (ip), vehicle: Klucel (hydroxypropylcellulose) (HPC)) was 87 % of control; the T/C (dose: 150.0 mg/kg/injection, schedule: Q01DX009 (ip), vehicle: Klucel (hydroxypropylcellulose) (HPC)) was 89 % of control; the T/C (dose: 300.0 mg/kg/injection, schedule: Q01DX009 (ip), vehicle: Klucel (hydroxypropylcellulose) (HPC)) is 87 % of control.

`CN(C)S(=O)(=O)c1ccc(NC(=O)OC2CCCCCC2)cc1`: the T/C reads like this: under setting [13], 91 % of control; under setting [14], 94 % of control; under setting [15], 91 % of control.

In the case of `Cc1c(C(=O)O)nnn1/C=C/c1ccccc1`, the T/C was 103 % of control (dose: 100.0 mg/kg/injection, schedule: Q04DX003 (ip), vehicle: acetone) and 87 % of control (dose: 200.0 mg/kg/injection, schedule: Q04DX003 (ip), vehicle: acetone).

In the case of `CC(=O)Nc1ccc(/C=N/NC(=O)CNC(=O)Nc2cccc(Cl)c2Cl)cc1`, the T/C is 121 % of control under setting [16], 90 % of control under setting [5] and 88 % of control under setting [6].

Turning to `c1ccc(-c2csc(-c3nc(-c4ccccc4)cs3)n2)cc1`, the T/C under setting [8] is 90 % of control, the T/C under setting [9] is 95 % of control and the T/C under setting [10] was 102 % of control.

For `O=C(Nc1ccccc1)C1C2CC3OC(=O)C1C3C2` (configuration not stated), the T/C reads like this: under setting [2], 104 % of control and 102 % of control; under setting [3], 95 % of control and 92 % of control; under setting [4], 98 % of control and 104 % of control.

Take `CN(N=O)C(=O)NCC1OC(OC2(CO)OC(CNC(=O)N(C)N=O)C(O)C2O)C(O)C(O)C1O` (configuration not stated): the T/C was 107 % of control under setting [16]; 91 % of control under setting [17]; 121 % of control under setting [5]; 109 % of control under setting [1]; 154 % of control under setting [7].

For `COc1cc(Cc2cnc(NC(C)=O)nc2NC(C)=O)cc(OC)c1OC`, the T/C is, setting by setting: under setting [18], 92 % of control; (dose: 12.5 mg/kg/injection, schedule: Q04DX003 (ip), vehicle: saline with Tween-80) 101 % of control; under setting [19], 95 % of control; (dose: 25.0 mg/kg/injection, schedule: Q04DX003 (ip), vehicle: saline with Tween-80) 101 % of control; under setting [16], 88 % of control; (dose: 50.0 mg/kg/injection, schedule: Q04DX003 (ip), vehicle: saline with Tween-80) 95 % of control.

For the compound `C=CCc1ccccc1OC`, the T/C runs as follows: under setting [5], 102 % of control; under setting [6], 95 % of control.

`CCCCCCCCCCC(N)P(=O)(O)O` (configuration not stated): the T/C was 103 % of control under setting [18]; 101 % of control under setting [19]; 105 % of control under setting [16]; 98 % of control (dose: 300.0 mg/kg/injection, schedule: Q01DX001 (ip), vehicle: saline).

Take `Cn1cnc2ncnn2c1=S`: the T/C under setting [17] was 114 % of control, the T/C under setting [2] was 103 % of control and the T/C under setting [3] is 105 % of control.

`COc1ccccc1NC(=O)Nc1cccc(C)c1C`: the T/C reads like this: under setting [11], 96 % of control; under setting [8], 93 % of control; under setting [12], 92 % of control; under setting [9], 93 % of control; (dose: 400.0 mg/kg/injection, schedule: Q01DX009 (ip), vehicle: Klucel (hydroxypropylcellulose) (HPC)) 100 % of control; under setting [10], 92 % of control.

Turning to `O=c1[nH]c2ccsc2c(=O)n1O`, the T/C is 102 % of control under setting [2] and 97 % of control under setting [3].

As to `NC(N)=N/N=C/c1cc(Cl)cc(Cl)c1O`, the T/C (dose: 75.0 mg/kg/injection, schedule: Q01DX001 (ip), vehicle: saline) was 101 % of control.

Turning to `c1ccc(NC2=NCCCN2)cc1`, the T/C (dose: 12.5 mg/kg/injection, schedule: Q01DX001 (ip), vehicle: saline with Tween-80) was 102 % of control; the T/C (dose: 25.0 mg/kg/injection, schedule: Q01DX001 (ip), vehicle: saline with Tween-80) was 97 % of control; the T/C (dose: 50.0 mg/kg/injection, schedule: Q01DX001 (ip), vehicle: saline with Tween-80) is 91 % of control.

`Nc1ccc(OCCCc2c(-c3ccccc3)nc(N)[nH]c2=O)cc1`: the T/C is 93 % of control (dose: 50.0 mg/kg/injection, schedule: Q01DX001 (ip), vehicle: saline); 96 % of control under setting [13]; 100 % of control under setting [2]; 102 % of control under setting [14]; 96 % of control under setting [3]; 102 % of control under setting [15]. Further, the T/C under setting [4] is 90 % of control.

Take `COc1cc(C=O)cc(Br)c1O`: the T/C is 97 % of control (dose: 100.0 mg/kg/injection, schedule: Q04DX002 (ip), vehicle: saline with Tween-80); 93 % of control (dose: 200.0 mg/kg/injection, schedule: Q04DX002 (ip), vehicle: saline with Tween-80); 87 % of control (dose: 400.0 mg/kg/injection, schedule: Q04DX002 (ip), vehicle: saline with Tween-80).
